{"source": "patent US4272530A", "about": "“Δ^1,3,5(10) -Estratrienes” (Roussel Uclaf, priority 1977, dated 1981)", "key": {"[1]": {"biological_target": "T1, specific uterine reception of estradiol (uterus cytosol) (Mus musculus, UniProt P19785)", "T1 construct": "the uterus was removed and homogenized in a buffered solution; from tissue; host or cells: uterus cytosol (105,000 g supernatant) of immature female mice, 18 to 21 days old", "T1 sequence (P19785 1-599)": "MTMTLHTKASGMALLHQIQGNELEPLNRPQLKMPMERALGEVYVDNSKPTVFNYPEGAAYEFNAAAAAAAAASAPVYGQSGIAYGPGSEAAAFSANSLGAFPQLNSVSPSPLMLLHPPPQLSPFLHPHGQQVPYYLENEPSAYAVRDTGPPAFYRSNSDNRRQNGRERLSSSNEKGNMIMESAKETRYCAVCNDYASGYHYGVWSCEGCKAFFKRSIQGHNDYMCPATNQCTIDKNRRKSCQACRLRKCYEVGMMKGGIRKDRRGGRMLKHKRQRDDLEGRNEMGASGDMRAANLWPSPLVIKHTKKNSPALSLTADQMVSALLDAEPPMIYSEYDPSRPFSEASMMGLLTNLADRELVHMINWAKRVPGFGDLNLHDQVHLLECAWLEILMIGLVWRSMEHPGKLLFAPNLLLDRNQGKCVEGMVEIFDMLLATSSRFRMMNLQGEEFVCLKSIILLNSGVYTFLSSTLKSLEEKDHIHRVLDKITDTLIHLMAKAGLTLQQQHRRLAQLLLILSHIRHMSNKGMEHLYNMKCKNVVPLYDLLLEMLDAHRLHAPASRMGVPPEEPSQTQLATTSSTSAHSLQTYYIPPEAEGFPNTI", "experiment": "hormonal receptor method of Raynaud et al.: displacement of tritiated estradiol in uterus cytosol", "assay_type": "binding, mice", "protocol": "The estrogenic activity was determined for 11β-vinyl-17α-ethynyl-^1,3,5(10) -estratriene-3,17β-diol was determined by the hormonal receptor method of Raynaud et al. [J. Ster. Biochem., Vol. 6 (1975), p. 615-622]. Immature female mice aged 18 to 21 days old were sacrificed and the uterus was removed and homogenized in a buffered solution of […] of tromethamine, 0.25 M of saccharose and a pH of 7.4 with hydrochloric acid. The homogenate was centrifuged at 105,000 g per hour and the surnageant or cytosol was adjusted to a dilution of 1/25 (weight/volume). […] The radioactivity of the tritiated product R was determined in 2 hours by the technique of adsorption on carbondextran (1.25%-0.625%). The plots were the curves representing the percentage of tritiated product R as a function of the log of the concentration of cold product R or the test product and the I50 straight line parallel to the axis of the abcisses and ordinates [formula] B/T max. is the percentage of tied tritiated product R when the product is not added and B/T min. is the percentage of tied tritiated product R when the maximum amount of cold product R is added."}, "[2]": {"test_system": "female mice", "experiment": "estrogenic (uterotrophic) activity by the method of Rubin, uterus weight", "assay_type": "in vivo", "settings": "for Weight of uterus: female mice 19-21 days old, killed on 4th day, control 11.4 ± 0.5", "protocol": "The estrogenic activity of the product of Example 1 was also determined by the method of Rubin [Endocrinology, Vol. 49 (1951), p. 429] in which female mice 19-21 days old received once a day for 3 days a subcutaneous injection of the test product. The animals were killed on the 4th day and the uterus was removed, dissected and weighed. The test product was administered in a volume of 0.1 ml of oily solution at doses of 0.01γ, 0.03γ, 0.09γ and 0.27γ."}}, "data": [{"smiles": "C#C[C@]1(O)CC[C@H]2[C@@H]3CCc4cc(O)ccc4[C@H]3[C@@H](C=C)C[C@@]21C", "note": "[Example 1, 11β-vinyl-17α-ethynyl-Δ^1,3,5(10) -estratriene-3,17β-diol]", "values": [{"measurement": "affinity for specific uterine reception of estradiol compared with estradiol", "setting": "[1]; conclusion from Table III", "result": "greater affinity for specific uterine reception of estradiol than estradiol"}, {"measurement": "ARL (relative affinity of the test product)", "setting": "[1]; immature female mouse uterus cytosol, tritiated estradiol, 25° C. for 5 hours, estradiol = 100", "result": 240}, {"measurement": "uterotrophic activity", "setting": "[2]; conclusion from Table IV", "result": "clear uterotrophic activity"}, {"measurement": "Weight of uterus", "setting": "[2]; dose 0.01γ subcutaneous once a day for 3 days", "result": "25.8 ± 1.7", "unit": "mg"}, {"measurement": "Weight of uterus", "setting": "[2]; dose 0.03γ subcutaneous once a day for 3 days", "result": "90.1 ± 5.7", "unit": "mg"}, {"measurement": "Weight of uterus", "setting": "[2]; dose 0.09γ subcutaneous once a day for 3 days", "result": "128.8 ± 12.1", "unit": "mg"}, {"measurement": "Weight of uterus", "setting": "[2]; dose 0.27γ subcutaneous once a day for 3 days", "result": "107.6 ± 7.4", "unit": "mg"}]}]}
